Consider 10 compounds from patent US4870097A, “Pharmaceutical use of derivatives of tryptophan” (priority 1984, dated 1989).

The structures appear in SMILES notation.

Assay [1] concerns analgesic activity of morphine. The experiment in a line: Tail Flick Test: increase in the analgesic effect of morphine. It is filed as in vivo, rats. Conditions: for percentage variation in the latency of the pain sensation, 10' / percentage variation in the latency of the pain sensation, 20' / percentage variation in the latency of the pain sensation, 30' / percentage variation in the latency of the pain sensation, 45' / percentage variation in the latency of the pain sensation, 60' / percentage variation in the latency of the pain sensation, 90' / M(10'-90') average percentage variation: compound 10 mg/kg i.p. + morphine 2 mg/kg (row Morphine: alone); for percentage variation in the latency of the pain sensation, 10' / percentage variation in the latency of the pain sensation, 20' / percentage variation in the latency of the pain sensation, 30' / percentage variation in the latency of the pain sensation, 45' / percentage variation in the latency of the pain sensation, 60' / percentage variation in the latency of the pain sensation, 90': ± S.E.; for M(10'-90') average percentage variation: mean 10'-90'; for Potency ratio relative to morphine alone: rat, in vivo. As for the experimental part: Increase in the analgesic effect of analgesic-narcotic drugs in rats in the Tail Flick Test
The method is that described by Harris et al. (J. Pharmacol. Exp. Ther. 143 (1964) 141-148).
Male rats are used which have a weight of about 150-200 g and which have not been fasting. A point is chosen on the tail and this is irradiated by a heat source (75° C.) and the time (in seconds) for which the animal remains without moving its tail is measured.
A maximum period of time under the heat source of 8 seconds is chosen after which the animal is, in any case, removed in order to avoid tissue damage. The measurement is effected before (controls) and after treatment with the drugs.
. The percentage variation is calculated for each individual animal by the following formula: [formula] The measurements are carried out 10, 20, 30, 45, 60 and 90 minutes after treatment with the analgesics.
The results obtained are given in Table 1 which records the groups treated and the doses administered, the
average percentage variations (calculated on groups of five animals) in […]
(Hot-plate and tail-flick tests time the reaction to a heat stimulus.)

Assay [2] deals with guinea pig gall bladder contracted with CCK-8. Description: Anti-CCK activity on guinea pig gall bladders in vitro. In kind it is biochemical. To be noted: CCK-8 10 ng/ml, concentration antagonising 50% of contracting effect. The method, then: A longitudinal strip of guinea pig gall bladder is placed in a bath of Krebs for isolated organs at a temperature of 32° C. and oxygenated continuously with an oxygen-CO2 mixture (95-5 V/V).
The […] contractions are detected by means of a force transducer and recorded.
The gall bladder is contracted with the use of a CCK-8 solution at a concentration of 10 ng/ml; the antagonistic activity of the compounds of the invention towards the contracting effect of the CCK is determined with the use of different concentrations, the ED50 value, that is the concentration of the compound in mcg/ml capable of antagonising 50% of the contracting effect of the CCK, being determined.
The results obtained are set out in the following table which gives the compounds tested and the ED50 values which are calculated by the method of regression on a test of at least three experiments for each compound studied.

With `Cc1cccc(C(=O)N[C@@H](Cc2c[nH]c3ccccc23)C(=O)O)c1` [Compound 21], in assay [1], the “percentage variation in the latency of the pain sensation, 10'” value (“percentage variation in the latency … 10'” below) amounted to 30.5 ± 19.7%; the “percentage variation in the latency of the pain sensation, 20'” value (“percentage variation in the latency … 20'” for short) is on record as 89.0 ± 11.0%; the “percentage variation in the latency of the pain sensation, 30'” value (from here on “percentage variation in the latency … 30'”) is given as 93.9 ± 6.1%; the “percentage variation in the latency of the pain sensation, 45'” value (from here on “percentage variation in the latency … 45'”) came out at 85.9 ± 14.1%. In assay [1], the “percentage variation in the latency of the pain sensation, 60'” value (from here on “percentage variation in the latency … 60'”) is recorded as 99.2 ± 0.8%; the “percentage variation in the latency of the pain sensation, 90'” value (from here on “percentage variation in the latency … 90'”) is given as 56.3 ± 17.4%; the “M(10'-90') average percentage variation” value was determined as 77.3%; the “Potency ratio relative to morphine alone” value was 2.59. Besides, in assay [2], the “Anti CCK-8 activity, ED50” value is “IN (inactive up to 400 mcg/ml)”.
Consider `CCCc1ccc(C(=O)N[C@@H](Cc2c[nH]c3ccccc23)C(=O)O)cc1` [Compound 22], for which, in assay [1], the “percentage variation in the latency … 10'” value is listed as 18.5 ± 5.3%; the “percentage variation in the latency … 20'” value is given as 39.3 ± 10.5%; the “percentage variation in the latency … 30'” value came out at 32.2 ± 7.9%; the “percentage variation in the latency … 45'” value is listed as 37.1 ± 13.9%. In assay [1], the “percentage variation in the latency … 60'” value is on record as 35.5 ± 10.0%; the “percentage variation in the latency … 90'” value was 24.5 ± 6.6%; the “M(10'-90') average percentage variation” value stood at 31.2%; the “Potency ratio relative to morphine alone” value came out at 1.05. For the same compound, in assay [2], the “Anti CCK-8 activity, ED50” value was found to be 25.7 µg/mL.
For `CCCCc1ccc(C(=O)N[C@@H](Cc2c[nH]c3ccccc23)C(=O)O)cc1` [Compound 23], in assay [1], the “percentage variation in the latency … 10'” value was 47.9 ± 15.7%; the “percentage variation in the latency … 20'” value turned out to be 50.3 ± 10.1%; the “percentage variation in the latency … 30'” value came to 56.9 ± 20.6%; the “percentage variation in the latency … 45'” value was found to be 67.2 ± 20.9%. Moreover, in assay [1], the “percentage variation in the latency … 60'” value was found to be 41.1 ± 16.3%; the “percentage variation in the latency … 90'” value turned out to be 36.1 ± 18.0%; the “M(10'-90') average percentage variation” value worked out at 49.9%; the “Potency ratio relative to morphine alone” value came out at 1.67. Besides, the “Anti CCK-8 activity, ED50” value in assay [2] came out at 74.0 µg/mL.
In the case of `CC(C)Cc1ccc(C(=O)N[C@@H](Cc2c[nH]c3ccccc23)C(=O)O)cc1` [Compound 24], in assay [1], the “percentage variation in the latency … 10'” value was determined as 66.9 ± 14.8%; the “percentage variation in the latency … 20'” value was determined as 61.9 ± 17.5%; the “percentage variation in the latency … 30'” value was found to be 84.4 ± 11.6%; the “percentage variation in the latency … 45'” value is 69.1 ± 14.9%. Also, in assay [1], the “percentage variation in the latency … 60'” value came to 65.2 ± 11.4%; the “percentage variation in the latency … 90'” value was 32.7 ± 19.9%; the “M(10'-90') average percentage variation” value is 63.4%; the “Potency ratio relative to morphine alone” value was 2.13. Also, the “Anti CCK-8 activity, ED50” value in assay [2] amounted to 327.7 µg/mL.
As for `CCCCCc1ccc(C(=O)N[C@@H](Cc2c[nH]c3ccccc23)C(=O)O)cc1` [Compound 25], in assay [1], the “percentage variation in the latency … 10'” value is given as 32.9 ± 17.3%; the “percentage variation in the latency … 20'” value was 63.7 ± 19.1%; the “percentage variation in the latency … 30'” value came out at 97.5 ± 2.5%; the “percentage variation in the latency … 45'” value stood at 100.0 ± 0.0%. In assay [1], the “percentage variation in the latency … 60'” value was 100.0 ± 0.0%; the “percentage variation in the latency … 90'” value stood at 82.9 ± 17.1%; the “M(10'-90') average percentage variation” value is 79.5%; the “Potency ratio relative to morphine alone” value is 2.67. For the same compound, the “Anti CCK-8 activity, ED50” value in assay [2] is 103.8 µg/mL.
As for `CCCCCCCc1ccc(C(=O)N[C@@H](Cc2c[nH]c3ccccc23)C(=O)O)cc1` [Compound 27], in assay [1], the “percentage variation in the latency … 10'” value turned out to be 73.8 ± 18.1%; the “percentage variation in the latency … 20'” value is 95.2 ± 4.7%; the “percentage variation in the latency … 30'” value turned out to be 86.6 ± 9.0%; the “percentage variation in the latency … 45'” value is reported as 87.7 ± 12.3%. In assay [1], the “percentage variation in the latency … 60'” value worked out at 83.8 ± 9.9%; the “percentage variation in the latency … 90'” value was 88.4 ± 8.5%; the “M(10'-90') average percentage variation” value is 85.9%; the “Potency ratio relative to morphine alone” value stood at 2.88. Also, the “Anti CCK-8 activity, ED50” value in assay [2] worked out at 148.5 µg/mL.
Regarding `CCCCCCCCCc1ccc(C(=O)N[C@@H](Cc2c[nH]c3ccccc23)C(=O)O)cc1` [Compound 28], in assay [1], the “percentage variation in the latency … 10'” value came to 79.5 ± 12.7%; the “percentage variation in the latency … 20'” value amounted to 100.0 ± 0.0%; the “percentage variation in the latency … 30'” value came out at 98.0 ± 2.0%; the “percentage variation in the latency … 45'” value is listed as 100.0 ± 0.0%. Besides, in assay [1], the “percentage variation in the latency … 60'” value is reported as 82.2 ± 17.8%; the “percentage variation in the latency … 90'” value is on record as 78.8 ± 11.4%; the “M(10'-90') average percentage variation” value was found to be 89.7%; the “Potency ratio relative to morphine alone” value is 3.01. Further, the “Anti CCK-8 activity, ED50” value in assay [2] was 18.9 µg/mL.
Consider `Cc1ccc(C(=O)N[C@@H](Cc2c[nH]c3ccccc23)C(=O)O)cc1C` [Compound 29], for which, in assay [1], the “percentage variation in the latency … 10'” value is given as 54.7 ± 14.1%; the “percentage variation in the latency … 20'” value is 62.6 ± 16.5%; the “percentage variation in the latency … 30'” value is recorded as 62.8 ± 17.5%; the “percentage variation in the latency … 45'” value was 65.9 ± 16.0%. For the same compound, in assay [1], the “percentage variation in the latency … 60'” value came out at 51.4 ± 12.7%; the “percentage variation in the latency … 90'” value is listed as 52.5 ± 15.7%; the “M(10'-90') average percentage variation” value turned out to be 58.3%; the “Potency ratio relative to morphine alone” value is given as 1.96. For the same compound, in assay [2], the “Anti CCK-8 activity, ED50” value is “IN (inactive up to 400 mcg/ml)”.
With `O=C(N[C@@H](Cc1c[nH]c2ccccc12)C(=O)O)c1ccc(C(F)(F)F)cc1` [Compound 30], in assay [1], the “percentage variation in the latency … 10'” value was determined as 9.8 ± 10.5%; the “percentage variation in the latency … 20'” value came to 45.6 ± 16.1%; the “percentage variation in the latency … 30'” value is 69.3 ± 22.2%; the “percentage variation in the latency … 45'” value was found to be 62.3 ± 21.9%. In assay [1], the “percentage variation in the latency … 60'” value was determined as 54.8 ± 17.6%; the “percentage variation in the latency … 90'” value is 24.7 ± 15.5%; the “M(10'-90') average percentage variation” value was determined as 43.6%; the “Potency ratio relative to morphine alone” value was determined as 1.46. In addition, the “Anti CCK-8 activity, ED50” value in assay [2] was “IN (inactive up to 400 mcg/ml)”.
Consider `N#Cc1ccc(C(=O)N[C@@H](Cc2c[nH]c3ccccc23)C(=O)O)cc1` [Compound 31], for which, in assay [1], the “percentage variation in the latency … 10'” value was 67.6 ± 16.1%; the “percentage variation in the latency … 20'” value is 66.3 ± 3.5%; the “percentage variation in the latency … 30'” value is 81.4 ± 14.7%; the “percentage variation in the latency … 45'” value was 73.4 ± 18.0%. For the same compound, in assay [1], the “percentage variation in the latency … 60'” value is recorded as 77.4 ± 10.3%; the “percentage variation in the latency … 90'” value turned out to be 21.3 ± 16.5%; the “M(10'-90') average percentage variation” value came to 64.6%; the “Potency ratio relative to morphine alone” value was 2.17. Also, the “Anti CCK-8 activity, ED50” value in assay [2] was “IN (inactive up to 400 mcg/ml)”.
